The values that follow come from publication PMC12056667 (Chemical Science, 2025).

The subject of test [1] is tigecycline resistant Salmonella, E. coli, Acinetobacter and Proteus isolates containing tet(X) genes. Kind of test: Checkerboard assays across the panel of isolates. In kind it is cell-based. Conditions: against all of the strains tested. How it is done: MIC tests and checkerboard assays were performed in U-bottom, 96-well microtiter plates using a modified broth microdilution protocol following CLSI guidelines. Cation-adjusted Mueller-Hinton Broth (CAMHB) was prepared fresh on the day of testing.[74] In brief, assays were set up in a total volume of 100 μL per well and titrations comprised seven 2-fold dilutions of inhibitors and ten 2-fold dilutions of tigecycline in CAMHB. Bacterial colonies were selected from an overnight culture on MHA plates (supplemented with 0.2%w/vL-arabinose for E. coli TOP10 containing pBAD-TOPO-Tet(X4)) and were suspended in 0.9% saline solution to achieve a 0.5 McFarland standard. A 100 μL aliquot of this suspension was then diluted into 9.9 mL of CAMHB to yield approximately 1.5 × 10^6 cfu mL^−1. 50 μL of the suspension was then added to each well of a microtiter plates. Plates were incubated at 37 °C for 18 h. At least 2 replicates were conducted for each combination. E. coli TOP10 + pBAD-TOPO-Tet(X4) cells were grown in the absence and presence of 0.2%w/vL-arabinose. […] As a measure of synergy, fractional inhibitory concentration index (FICI) was calculated as FICA + FICB, where FICA and FICB are the MICcombination/MICalone for each agent, respectively.[76] […] In cases where the MIC exceeded or was below the measured range, the borderline value was taken to calculate the FIC index.

The target in a further test is Tet(X4) (Escherichia coli, UniProt A0A3T0V9Y5). As to the kind of experiment: Absorbance activity assay (tigecycline turnover, A400). Format: biochemical. An excerpt:
We then tested the binding of reported type 1 TDase inhibitors to Tet(X4) (Fig. 3f, ESI Fig. S17 ^†).[33,38,39] […] These compounds gave similar apparent IC50^app values, in accord with trends in IC50 measurements performed by Markley et al.[33] […] We also developed a complementary endpoint activity assay where the turnover of tigecycline by Tet(X4) in a 96-well plate was quenched by addition of 1%v/v formic acid and analysed chromatographically. The peak integrals of tigecycline and its hydroxylated degradation product at 254 nm following UPLC analysis were measured to determine turnover (Fig. 5a). As this method separates components by chromatography, it enables IC50 measurements independent of potential interference from UV-active inhibitors (Fig. 5b). […] The apparent synergy of AZT with tetracyclines against whole cells expressing Tet(X4)[40] is therefore interesting and may derive from the proposed ability of AZT to interfere with DNA synthesis in bacteria,[40,53] or other unidentified mechanisms. […] Note, however, that plumbagin and 2-MNQ are naphthoquinones, which are well-characterised redox-active pan-assay interference (PAINS) moieties.[54]
233 Absorbance Activity Assays
234 A solution containing 100 mM TAPS (pH 8.5), 2 µM FAD, 10 mM MgCl2 and 100 nM Tet(X4) was
235 dispensed into a 384 well µClear plate (Greiner Bio-One), 25 µL per well, using a microplate reagent
236 dispenser. A 3-fold, 10-point dilution series of the substrates and inhibitors was made in DMSO with
237 the highest concentration of 50 mM, unless otherwise stated, and transferred to the enzyme solution in
238 technical quadruplicate using a CyBi-Well (CyBio) liquid-handling robot (1 µL per well). On each plate,
239 a column of no enzyme negative controls and no inhibitor (DMSO only) positive controls were
240 included. The plate was briefly centrifuged (1000 rpm), then incubated (ambient temperature,15 min).
241 A solution containing 100 mM TAPS (pH 8.5), 50 µM tigecycline and 500 µM NADPH was then
242 dispensed, with 25 µL per well. The plate was briefly centrifuged (1000 rpm), then transferred to a
243 CLARIOstar Plus Microplate reader. The absorbance was monitored at wavelength […] over the
244 course of 2 hours (23 flashes / cycle, 180 s cycle time, 41 data points, 25 ° C). The initial rate was
245 calculated by measuring the rate of change of A400 during the initial linear regime. Initial rates were
246 normalised between positive and negative controls. The normalised % response was plotted as a
247 function of log10([Inhibitor]) in molar units, and the IC50 was determined as above. […]

`[H]/N=C(/NCCCCC)N/N=C/c1c[nH]c2ccc(OC)cc12` [Tegaserod]: in test [1], the “reduction of the tigecycline MIC in combination” value is 2–8 fold.

One may read the IC50 as the concentration that gives 50% inhibition. Turning to `Cc1c2c(c(O)c3c(O)cccc13)C(=O)[C@]1(O)C(=O)C(C(N)=O)=C(O)[C@@H](N(C)C)[C@@H]1C2` [Anhydrotetracycline], the IC50 on Tet(X4) was found to be 7.6 ± 2 µM.
